Data on 32 compounds can be found in ChEMBL document CHEMBL1143137, “Synthesis, in vitro and in vivo activity of thiamine antagonist transketolase inhibitors” (Bioorg Med Chem Lett, 2008).

For assay [1], the target named is T1, Transketolase (Homo sapiens, UniProt P29401).
T1 sequence (P29401 whole entry): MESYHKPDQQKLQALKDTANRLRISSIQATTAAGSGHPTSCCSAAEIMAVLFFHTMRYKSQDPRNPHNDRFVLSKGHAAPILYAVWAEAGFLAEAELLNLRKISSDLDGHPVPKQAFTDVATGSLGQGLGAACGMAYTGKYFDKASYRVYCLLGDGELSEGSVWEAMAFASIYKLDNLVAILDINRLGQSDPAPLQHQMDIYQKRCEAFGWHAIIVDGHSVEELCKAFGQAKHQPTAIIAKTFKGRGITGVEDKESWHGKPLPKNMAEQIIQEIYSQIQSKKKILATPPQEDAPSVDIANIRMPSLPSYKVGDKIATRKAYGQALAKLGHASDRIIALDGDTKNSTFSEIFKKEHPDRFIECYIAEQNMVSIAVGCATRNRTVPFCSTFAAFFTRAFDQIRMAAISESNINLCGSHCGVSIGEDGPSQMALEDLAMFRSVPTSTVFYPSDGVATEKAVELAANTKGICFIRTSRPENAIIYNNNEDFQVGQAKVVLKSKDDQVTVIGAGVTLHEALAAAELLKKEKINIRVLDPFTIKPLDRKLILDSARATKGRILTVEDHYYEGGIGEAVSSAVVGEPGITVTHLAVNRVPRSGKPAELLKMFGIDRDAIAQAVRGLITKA
Description: Inhibition of transketolase by TPPK/apo-TK coupled assay.

The target in assay [2] is T1, Transketolase. Description: Inhibition of human transketolase in HCT116 cells. Type of assay: cell-based, HCT-116.
Assay [3] addresses T1, Transketolase. Description: Binding affinity to apo-transketolase.
Assay [4] has as its system Mus musculus. In words: Inhibition of transketolase activity in human HCT116 cells xenografted mouse at 100 mg/kg, iv bid for 2 weeks. In kind it is functional, organism-based. Further details: dose 100 mg/kg. The note with it: HCT-116. (In general: Xenograft models place foreign cells or tissue in a host animal.)
Assay [5] relates to Mus musculus. Description: Inhibition of alphaKGDH activity in human HCT116 cells xenografted mouse at 100 mg/kg, iv bid for 2 weeks. Type of assay: functional, organism-based. Further details: dose 100 mg/kg. To be noted: HCT-116.
In assay [6] the test system is Mus musculus. Description: Inhibition of G6PD activity in human HCT116 cells xenografted mouse at 100 mg/kg, iv bid for 2 weeks. In kind it is functional, organism-based. The arrangement: dose 100 mg/kg. The note with it: HCT-116.
The subject of assay [7] is HCT-116. Description: Antitumor activity against human HCT116 cells xenografted mouse assessed as reduction in tumor size at 100 mg/kg, iv bid for 2 weeks. In kind it is functional, organism-based. Further details: dose 100 mg/kg.

Calls of active or inactive are those of the source. The calls are words filed in the database; no cut-off is given here.

In general, Kd refers to the free concentration of one partner at which half of the binding sites on the other are occupied at equilibrium, for simple one-to-one binding. In general, EC50 refers to the concentration giving half of the maximal effect. For `CCc1ccc(C[n+]2csc(CCO)c2C)c(N)n1`, the dissociation constant (Kd) in assay [1] was determined as 10 nM. The same compound gave a concentration giving a half-maximal response (EC50) in assay [2] of 8.7 nM.

In the case of `Cc1ccc(C[n+]2csc([C@@H](O)CO)c2C)c(N)n1`, in assay [1], the Kd was found to be 27 nM. This compound also displayed an EC50 in assay [2] of 2000 nM. Compound `Cc1ccc(C[n+]2csc(CCCO)c2C)c(N)n1` registered an EC50 in assay [2] of 1300 nM. `Cc1c(CCO)sc[n+]1Cc1ccc(C#N)nc1N` came in with a dissociation constant Kd in assay [1] of 57 nM. Also, in assay [2], the concentration giving a half-maximal response (EC50) amounted to 360 nM. On to `Cc1c(CCO)sc[n+]1Cc1ccc(C(=O)c2ccccc2C(=O)O)nc1`, for which the Kd in assay [1] was 140 nM. For the same compound, in assay [2], the EC50 turned out to be 3100 nM. The compound `Cc1c(CCO)sc[n+]1Cc1cccnc1N` yielded a dissociation constant (Kd) in assay [1] of 36 nM. As to `Cc1c(CCO)sc[n+]1Cc1ccc(Cl)nc1N`, binding in assay [1] was characterised by a dissociation constant (Kd) of 46 nM.

The compound `CC(=O)OCCc1sc[n+](Cc2ccc(C)nc2N)c1C` registered a concentration for a half-maximal effect (EC50) in assay [2] of 4.7 nM. In assay [1], `Cc1c(CCO)sc[n+]1Cc1ccc(C(F)(F)F)nc1` had a Kd of 310 nM. In assay [2], this compound yielded an EC50 of 470 nM.

In assay [1], `CCc1c(CCO)sc[n+]1Cc1ccc(C)nc1N` yielded a dissociation constant (Kd) of 40 nM. The 50% effective concentration (EC50) in assay [2] is 950 nM. On the same counts, the results for `Cc1ccc(C[n+]2cc(CCO)sc2C)c(N)n1` are 36 nM and 490 nM. `Cc1ccc(C[n+]2csc(CCOP(=O)(O)OP(=O)(O)O)c2C)c(N)n1`: binding in assay [3] was characterised by a dissociation constant (Kd) of 22 nM.

`CCc1sc(CCO)c(C)[n+]1Cc1ccc(C)nc1N`: binding in assay [1] was characterised by a dissociation constant (Kd) of 75 nM. In assay [2], the 50% effective concentration (EC50) is 21 nM. Take `Cc1ccc(C[n+]2c(-c3ccc4c(c3)OCO4)sc(CCO)c2C)c(N)n1`: in assay [2], the EC50 amounted to 25000 nM. As for `Cc1ccc(C[n+]2csc(CCO)c2)c(N)n1`, binding in assay [1] was characterised by a dissociation constant (Kd) of 29 nM. This lies in the double-digit nanomolar range. In assay [1], `CC(=O)Nc1ccc(C[n+]2csc(CCO)c2C)c(N)n1` gave a Kd of 23 nM. In addition, the concentration for a half-maximal effect (EC50) in assay [2] was 800 nM. Compound `Cc1c(CCO)sc[n+]1Cc1ccc(C(F)(F)F)nc1N` registered a Kd in assay [1] of 104 nM. This compound had an EC50 in assay [2] of 160 nM.

Consider `Cc1cc(C)c(C[n+]2csc(CCO)c2C)c(N)n1`, for which, in assay [1], the affinity, expressed as Kd, was 34 nM. For the same compound, in assay [2], the response was half-maximal at 8.3 nM (EC50).

`Cc1cncc(C[n+]2csc(CCO)c2C)c1` registered a Kd in assay [1] of 220 nM. The EC50 in assay [2] stood at 38000 nM. In the same order, the values of `Cc1c(CCO)sc[n+]1Cc1cc(I)cnc1N` are 109 nM and 1000 nM.

`Cc1ccc(C[n+]2csc(CCO)c2CO)c(N)n1`: binding in assay [1] was put at a Kd of 25 nM. The compound also yielded an EC50 in assay [2] of 570 nM.

On to `Cc1ccc(C[n+]2csc(C(O)CO)c2C)c(N)n1` (configuration not stated), for which binding in assay [1] was characterised by a dissociation constant (Kd) of 53 nM. In assay [2], the EC50 turned out to be 300 nM. On the same counts, the results for `Cc1c(CCO)sc[n+]1Cc1ccc(N)nc1` are 7 nM and 1600 nM.

As to `Cc1ccc(C[n+]2csc(CCO)c2C)c(N)n1`, binding in assay [1] was put at a Kd of 33 nM. This compound also had an EC50 in assay [2] of 26 nM. In addition, the outcome in assay [4] and in assay [5] was Active. The result in assay [6] and in assay [7] was inactive. On to `COC(=O)CCc1sc[n+](Cc2ccc(C)nc2N)c1C`, for which, in assay [2], a half-maximal response (EC50) required 2300 nM. In other words, the single-digit micromolar range. `Cc1c(CCO)sc[n+]1Cc1c(C(F)(F)F)cc(C(F)(F)F)nc1N` showed a Kd in assay [1] of 1460 nM. `Cc1ccc(C[n+]2c(Cc3cccnc3)sc(CCO)c2C)c(N)n1` returned a concentration for a half-maximal effect (EC50) in assay [2] of 840 nM. This counts as sub-micromolar. For `Cc1ccc(C[n+]2c(C(C)O)sc(CCO)c2C)c(N)n1` (configuration not stated), the dissociation constant Kd in assay [1] amounted to 120 nM. In assay [2], this compound came in with an EC50 of 30 nM. On the same counts, the results for `Cc1ccc(C[n+]2csc([C@H](O)CO)c2C)c(N)n1` are 28 nM and 50 nM. In the same order, the values of `Cc1ccc(C[n+]2c(C)sc(CCO)c2C)c(N)n1` are 25 nM and 56 nM. Take `Cc1ccc(C[n+]2csc(CCC#N)c2C)c(N)n1`: in assay [2], the half-maximal effective concentration (EC50) turned out to be 2200 nM. In other words, the single-digit micromolar range. In assay [1], `Cc1c(CCO)sc[n+]1Cc1cnccc1N` gave a dissociation constant (Kd) of 64 nM. In addition, the EC50 in assay [2] is 24000 nM.
